Assay results published in US6858230B1, “Process for producing medicinal composition of basic hydrophobic medicinal compound” (Shionogi & Co., Ltd., priority 1999, dated 2005).

Columns and labels:
[1] = Dispersibility of active ingredient in acidic suspension with various kinds of acids; format: physicochemical; conditions: at preparation
Procedure: 50 g of PVP K30 was dissolved to 800 g of purified water. These aqueous solution were acidified by DL-Malic acid. The compound (I-1) was suspended in the acidic solution under stirring. The suspension was neutralized with 115 g of 13% NaOH aqueous solution to give a suspension. In place of malic acid in Example 3-1, citric acid was used. In place of malic acid in Example 3-1, phosphoric acid was used. No acid was used. Dispersibility of the compound (I-1) in an acidic suspension obtained in Example 3-1 to 3-4 including various kinds of acids was examined. Dispersibility was observed by the naked eyes at the time of preparation of an suspension.

[2] = Dispersibility of a basic compound in a suspension; format: physicochemical; conditions: suspension with DL-malic acid, neutralized with NaOH (Examples 3-1, 4, 5)
Procedure: 50 g of PVP K30 was dissolved to 800 g of purified water. These aqueous solution were acidified by DL-Malic acid. The compound (I-1) was suspended in the acidic solution under stirring. The suspension was neutralized with 115 g of 13% NaOH aqueous solution to give a suspension. In place of the compound (I-1) in Example 3-1, pindolol was used. In place of the compound (I-1) in Example 3-1, noscapine was used. Dispersibility of the compound (I-1) in an acidic suspension obtained in Example 3-1 to 3-4 including various kinds of acids was examined. Dispersibility was observed by the naked eyes at the time of preparation of an suspension. Dispersibility of active ingredient in the suspension obtained in Example 3-1, 4 and 5 was examined in accordance with Experiment 4.

| Structure (SMILES) | Dispersibility of drug substance ([1]; suspension with citric acid (Example 3-2)) | Dispersibility of drug substance ([1]; suspension with malic acid (Example 3-1)) | Dispersibility of drug substance ([1]; suspension with no acid (Reference Example 3-4)) | Dispersibility of drug substance ([1]; suspension with phosphoric acid (Example 3-3)) | Dispersibility of drug substance [2] |
| --- | --- | --- | --- | --- | --- |
| CC(C)c1nc(COC(N)=O)n(Cc2ccncc2)c1Sc1cc(Cl)cc(Cl)c1 [Compound (I-1), 5-(3,5-dichlorophenyl)thio-4-isopropyl-1-(4-pyridyl)methyl-1H-imidazol-2-ylmethyl carbamate] | Good | Good | Formation | Good | Good |
| COc1ccc2c(c1OC)C(=O)O[C@@H]2[C@H]1c2c(cc3c(c2OC)OCO3)CCN1C [Noscapine, noscapine] |  |  |  |  | Good |
| CC(C)NCC(O)COc1cccc2[nH]ccc12 (stereo not shown) [Pindolol, pindolol] |  |  |  |  | Good |
